Experimental data taken from PubChem BioAssay (NCI).
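Values below derive from 48-hour exposures of cells grown in 96-well plates, with endpoints linearly interpolated between the two concentrations bracketing the appropriate inhibition level. TGI denotes the concentration required for complete inhibition of growth.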 Where a SMILES comes first, the peptide text is derived from it. [ ]: non-standard residue; d: D form. The star is where a group is joined. ξ: configuration not given here. ξPhe(4-NO2) = NC(Cc1ccc([N+](=O)[O-])cc1)C(=O)O; Boc = CC(C)(C)OC(=O)*; OBn = c1ccc(CO*)cc1

Legend:
Assay in all cases: NCI tumour cell line growth inhibition, 48 h
NCI-H226 lung = tested on: NCI-H226 lung
UACC-257 melanoma = tested on: UACC-257 melanoma
UACC-62 melanoma = tested on: UACC-62 melanoma
MDA-MB-231 breast = tested on: MDA-MB-231 breast
MALME-3M melanoma = tested on: MALME-3M melanoma
CAKI-1 renal = tested on: CAKI-1 renal
OVCAR-3 ovarian = tested on: OVCAR-3 ovarian
786-0 renal = tested on: 786-0 renal
COLO 205 colon = tested on: COLO 205 colon
MDA-MB-435 = tested on: MDA-MB-435
RXF 393 renal = tested on: RXF 393 renal
HOP-62 NSCLC = tested on: HOP-62 NSCLC
OVCAR-8 ovarian = tested on: OVCAR-8 ovarian

| Compound | TGI (NCI-H226 lung) | TGI (UACC-257 melanoma) | TGI (UACC-62 melanoma) | TGI (MDA-MB-231 breast) | TGI (MALME-3M melanoma) | TGI (CAKI-1 renal) | TGI (OVCAR-3 ovarian) | TGI (786-0 renal) | TGI (COLO 205 colon) | TGI (MDA-MB-435) | TGI (RXF 393 renal) | TGI (HOP-62 NSCLC) | TGI (OVCAR-8 ovarian) |
| --- | --- | --- | --- | --- | --- | --- | --- | --- | --- | --- | --- | --- | --- |
| O=c1oc2ccccc2cc1-c1nnc(-c2ccccc2)s1 | > 100 µM | > 100 µM | > 100 µM | 46.3 µM | > 100 µM | > 100 µM | > 58.5 µM | > 66.6 µM | > 100 µM | 12.9 µM | > 54.6 µM | > 57.1 µM | > 69.4 µM |
| O=C1SC(c2ccc(Cl)cc2)(c2ccc(Cl)cc2)c2ccccc21 | > 100 µM | > 100 µM | > 100 µM | > 100 µM | > 100 µM | > 100 µM | > 100 µM | > 100 µM | > 100 µM | > 100 µM | > 100 µM | > 100 µM | > 100 µM |
| CC1=NN2C(=O)CC(=O)N=C2S1 | > 100 µM | > 100 µM | > 100 µM | > 100 µM | > 100 µM | > 100 µM | > 100 µM | > 100 µM | > 100 µM | > 100 µM | > 100 µM | > 100 µM | > 100 µM |
| CC(C)(C)OC(=O)NC(Cc1ccc([N+](=O)[O-])cc1)C(=O)NCC(=O)OCc1ccccc1 (centres undefined) (Boc-[ξPhe(4-NO2)]-Gly-OBn) | 67.8 µM |  | 32 µM | 80.3 µM | 61.9 µM | 27.7 µM | 50.5 µM | 33.8 µM | 32.3 µM | 33.2 µM | 53.1 µM | 36.7 µM | 52.4 µM |
| C=C(C)[C@@H]1CC[C@@H](C)[C@](O)([C@@H]2C[C@@H]([C@H](COC(=O)c3ccccc3)OC(=O)c3ccccc3)OC2=O)C1 | > 100 µM | > 100 µM | > 100 µM | > 100 µM | > 100 µM | > 100 µM | > 100 µM | > 100 µM | > 100 µM | > 100 µM | > 100 µM | > 100 µM | > 100 µM |
| COc1cc(/C=C2/SC(c3ccccc3)N(c3ccc(Cl)cc3)C2=O)cc(OC)c1OC (centres undefined) | > 100 µM | > 100 µM | > 100 µM | > 100 µM | > 100 µM | > 100 µM | > 100 µM | > 100 µM | > 42.6 µM | 24.2 µM | > 100 µM | > 100 µM | > 100 µM |
| COC1C=C(NCC2(CO)CCC2)NC(N)=N1 (centres undefined) | > 100 µM | > 100 µM | > 100 µM | > 100 µM | > 100 µM | > 100 µM | > 100 µM | > 100 µM | > 100 µM | > 100 µM | > 100 µM | > 100 µM | > 100 µM |
| CCCCCC(=O)OCC(=O)[C@H]1[C@H](C)C[C@H]2[C@@H]3C[C@H](F)C4=C/C(=N/OC(=O)c5cccc6c(=O)c7ccccc7[nH]c56)C=C[C@]4(C)[C@H]3[C@@H](O)C[C@@]21C | > 100 µM | 62 µM | 32 µM | > 100 µM | 33.2 µM | > 100 µM | 65.5 µM | > 100 µM | 72.8 µM | 55.3 µM |  | > 100 µM | 65.9 µM |
| Nc1nc(Cl)cc(NCC2(CO)CCC2)n1 | > 100 µM |  | > 100 µM | > 100 µM | > 100 µM | > 100 µM | > 100 µM | > 100 µM | > 100 µM | > 100 µM | > 100 µM | > 100 µM | > 100 µM |
| Cc1[nH]n(-c2nc3c(c(=O)[nH]2)CCC3)c(=O)c1CCO | > 100 µM | > 100 µM | > 100 µM | > 100 µM | > 100 µM | > 100 µM | > 100 µM | > 100 µM | > 100 µM | > 100 µM | > 100 µM | > 100 µM | > 100 µM |
| COc1cc(C)cc2c1C(=O)C(Br)=CC2=O | 32.3 µM | 26.7 µM | 23.3 µM | 30.2 µM | 4.73 µM | 3.18 µM | 11.7 µM | 8.16 µM | 3.23 µM | 5.68 µM | 8.36 µM | 32.5 µM | 15.2 µM |
| O=[N+]([O-])/C(Cl)=C(\Nc1ccccc1)C(Cl)=C(Cl)Cl | 78 µM | > 100 µM | 94.5 µM | 79.6 µM | 45.9 µM | > 100 µM | 40.7 µM | > 100 µM | 39.5 µM | 35.1 µM | > 100 µM | 56.6 µM | 53.9 µM |
| CC(C)C[C@H](NC(=O)CCc1ccccc1)B(O)O | 4.8 µM | 37.8 µM | 72.9 µM | 36.2 µM | 32.9 µM | 25.2 µM | 17.4 µM | 57.5 µM | 75.3 µM | 7.79 µM | 19.1 µM | 46.9 µM | 46.2 µM |
| CC1(C)CCCCCCCCCC(C)(CCCO)C1=O (centres undefined) | 31 µM | 31.8 µM | 32.4 µM | 28.7 µM | 30.6 µM | 31.6 µM | 34.1 µM | 30.7 µM | 30.1 µM | 34 µM | 34.4 µM | 30.3 µM | 35.8 µM |
| COc1ccc2c(c1)N(C(C)=O)CN1C(=O)CCC21 (centres undefined) | > 100 µM | > 100 µM | > 100 µM | > 100 µM | > 100 µM | > 100 µM | > 100 µM | > 100 µM | > 100 µM | > 100 µM | > 100 µM | > 100 µM | > 100 µM |
| c1ccc2[nH]c3[nH]c4[nH]c5ccccc5[nH]c4[nH]c3[nH]c2c1 | > 100 µM | > 100 µM | > 100 µM | > 100 µM | > 100 µM | > 100 µM | > 100 µM | > 100 µM | > 100 µM | > 100 µM | > 100 µM | > 100 µM | > 100 µM |
| C/C(=N\NS(=O)(=O)c1ccc(C)cc1)C(CN(C)C)C(c1ccccc1)c1c(O)c2ccccc2oc1=O (centres undefined) | > 100 µM | > 100 µM | > 100 µM | > 100 µM | > 100 µM | > 100 µM | > 100 µM | > 100 µM | > 100 µM | > 100 µM | > 100 µM | > 100 µM | > 100 µM |
| Cn1c2ccccc2c(=O)c2c(O)cc3c(c21)C=CC1(CCCC1)O3 | > 100 µM | > 100 µM | > 100 µM | > 100 µM | > 100 µM | > 100 µM | > 100 µM | > 100 µM | > 100 µM | > 100 µM | > 100 µM | > 100 µM | > 100 µM |
| COc1ccc2nc3cc([N+](=O)[O-])ccc3c(NNc3ccc(Cl)cc3)c2c1 | 26 µM | > 100 µM | > 65.9 µM | > 73.1 µM | > 100 µM | 2.26 µM | > 20.5 µM | 53.6 µM | 60.8 µM | > 100 µM | > 83.4 µM | > 78.8 µM | 65.1 µM |
| CCOc1ccc(N/C(=C(/C(Cl)=C(/Cl)NCCO)[N+](=O)[O-])n2nnc3ccccc32)cc1 | > 100 µM | > 100 µM | 56.7 µM | 63.8 µM | 32.4 µM | 27.8 µM | 35.2 µM | 81.7 µM | 29.7 µM | 35.1 µM | 31.7 µM | > 100 µM | 36.7 µM |
| Nc1nc(N)nc(-c2cnccn2)n1 | > 100 µM | > 100 µM | > 100 µM | > 100 µM | > 100 µM | > 100 µM | > 100 µM | > 100 µM | > 100 µM | > 100 µM | > 100 µM | > 100 µM | > 100 µM |
| CS(=O)(=O)c1[nH]nc2[nH]c(=O)[nH]c(=O)c12 | > 10 µM | > 10 µM | > 10 µM | > 10 µM | > 10 µM | > 10 µM | > 10 µM | > 10 µM | > 10 µM | > 10 µM | > 10 µM | > 10 µM | > 10 µM |
| CC(=O)O[C@H]1C(=O)[C@@]2(C)[C@H]([C@H](OC(=O)c3ccc([N+](=O)[O-])cc3)[C@]3(O)C[C@H](OC(=O)[C@H](O)[C@@H](NC(=O)c4ccccc4)c4ccccc4)C(C)=C1C3(C)C)[C@]1(OC(C)=O)CO[C@@H]1C[C@@H]2O | > 25 µM | > 25 µM | > 25 µM | > 25 µM | > 25 µM | > 25 µM |  | > 25 µM | > 25 µM | > 25 µM | > 25 µM | > 25 µM | > 25 µM |
| C[C@H]1C(OCCOC2O[C@@H]3O[C@@]4(C)CC[C@H]5[C@H](C)CCC([C@H]2C)[C@@]35O4)O[C@@H]2O[C@@]3(C)CC[C@H]4[C@H](C)CCC1[C@@]24O3 (some centres undefined) | > 100 µM | > 100 µM | > 100 µM | 75.1 µM | 41.5 µM | > 100 µM | > 100 µM | > 100 µM | 37.7 µM | > 100 µM |  | > 100 µM | > 100 µM |
| CC1(C)[C@@H]2C[C@H]1C(Cc1ccc(C[C@H]3c4cc(-c5ccccn5)ncc4[C@H]4C[C@@H]3C4(C)C)cc1)c1cc(-c3ccccn3)ncc12 (some centres undefined) |  | > 100 µM | 5.68 µM | > 100 µM | 76.6 µM | > 100 µM | 18.8 µM | 14.7 µM | 13.7 µM | 23.3 µM | 77.8 µM | 11 µM | 15.8 µM |
